Legend:
Lewis rats = experiment: Lewis rat adjuvant-induced arthritis, treatment test procedure; type: in vivo; settings: for joint inflammation score (maximal score per day 12): 10 mg/kg sc daily, treatment begun Day 8 after adjuvant
129 SvE mice = experiment: Mouse uterotrophic test procedure (Procedure 2); type: in vivo; settings: 50 mg/kg subcutaneously, 4 days, immature mice; first experiment, vehicle 9.5 ± 0.3
Experimental: Procedure 2: Sexually immature (18 days of age) 129 SvE mice were obtained from Taconic and provided unrestricted access to a casein-based diet (Purina Mills 5K96C) and water. On day 22, 23, 24 and 25 the mice were dosed subcutaneously with compound or vehicle (corn oil). There were six mice/group and they were euthanized approximately 6 hours after the last injection by CO2 asphyxiation and pneumothorax. Uteri were removed and weighed after trimming associated fat and expressing any internal fluid. The following results (Table (2)) were obtained for representative compounds from the invention.

[1] = system: progesterone receptor mRNA in the preoptic area of the rat brain; experiment: Progesterone receptor mRNA regulation test procedure; type: in vivo; settings: 10 mg/kg, vehicle 189.2 ± 27.2
Description: This test procedure can be used to evaluate the estrogenic or antiestrogenic activity of compounds from this invention [Shughrue, et al., Endocrinology 138: 5476-5484 (1997)].

casein kinase II mRNA = experiment: Mammary end bud test procedure (rat mammotrophic assay); type: in vivo; settings: 20 mg/kg sc + progesterone 30 mg/kg; ovariectomized rats; vehicle 1.61 ± 0.36
Experimental: Estrogens are required for full ductal elongation and branching of the mammary ducts, and the subsequent development of lobulo-alveolar end buds under the influence of progesterone. In this test procedure, the mammotrophic activity of selected compounds of the invention was evaluated according to the following standard pharmacological test procedure. Twenty-eight day old Sprague-Dawley rats (Taconic Farms, Germantown, N.Y.) were ovariectomized and rested for nine days. […] For the final three days, rats were also dosed subcutaneously with progesterone (30 mg/kg). On the seventh day, rats were euthanised and a mammary fat pad excised. This fat pad was analyzed for casein kinase II mRNA as a marker of end bud proliferation. Casein kinase II mRNA was anlayzed by real-time RT-PCR. Briefly, RNA was isolated following Trizol (GibcoBRL, Grand Island, N.Y.) according to the manufacture's directions, Samples were treated with DNAse I using DNA-free kit (Ambion), and casein kinase II mRNA levels were measured by real-time RT-PCR using the Taqman Gold procedure (PE Applied Biosystems). […] Casein kinase II mRNA levels were normalized to 18s ribosomal RNA contained within each sample reaction using primers and probe supplied by PE Applied Biosystems. The following results were obtained for an example of the invention (Table (4)).

HLA-B27 rats = experiment: HLA-B27 rat model of arthritis; type: in vivo; settings: 10 mg/kg orally once daily, Study 2
Description: The degree of arthritis severity is monitored daily in terms of the following disease indices: Hindpaw erythema, hindpaw swelling, tenderness of the joints, and movements and posture. An integer scale of 0 to 3 is used to quantify the level of erythema (0=normal paw, 1=mild erythema, 2=moderate erythema, 3=severe erythema) and swelling (0=normal paw, 1=mild swelling, 2=moderate swelling, 3=severe swelling of the hind paw). The maximal score per day is 12.
Evaluation in the HLA-B27 Rat model of arthritis. Representative compounds of the invention were evaluated in the HLA-B27 rat standard pharmacological test procedure which emulates arthritis in humans. The following briefly describes the procedure used and results obtained. Male HLA-B27 rats (8-10 weeks old) were obtained from Taconic and provided unrestricted access to a food (PMI Lab diet 5001) and water. Rats were dosed orally once daily with either vehicle (2% tween-80/0.5% methylcellulose) or test compound (10 mg/kg) for 26 days. Joint scores and histology are evaluated as described above for the Lewis rat model of adjuvant-induced arthritis.

human ERα = molecular target: T1, human ERα (Homo sapiens, UniProt P03372); experiment: Radioligand binding competition with [3H]-17β-estradiol, ERα; settings: human ERα ligand binding domain, read-out: ER-α IC50
T1 construct: amino acids M250-V595 of human ERα; His (N); made in house; host or cells: E. coli BL21(DE3), clarified lysate
T1 sequence (P03372 250-595): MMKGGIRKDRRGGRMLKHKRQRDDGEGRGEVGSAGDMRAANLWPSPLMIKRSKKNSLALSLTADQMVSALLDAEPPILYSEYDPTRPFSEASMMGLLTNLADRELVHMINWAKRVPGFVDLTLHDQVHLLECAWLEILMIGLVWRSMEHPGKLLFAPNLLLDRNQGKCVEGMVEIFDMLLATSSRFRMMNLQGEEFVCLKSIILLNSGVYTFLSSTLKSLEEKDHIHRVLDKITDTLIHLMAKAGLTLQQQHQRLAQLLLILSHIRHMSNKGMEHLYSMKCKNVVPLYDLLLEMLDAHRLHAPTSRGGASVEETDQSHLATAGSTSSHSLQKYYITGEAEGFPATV

[2] = tarsal joints, 10 mg/kg, vehicle 2.58 ± 0.38

SMILES: N#Cc1cc2c(c3ccc(O)cc13)OCc1cc(O)ccc1-2 [Example 1d, 2,8-Dihydroxy-6H-dibenzo[c,h]chromene-12-carbonitrile]
- joint inflammation score (maximal score per day 12) (Lewis rats; day 1, vehicle 10.83): 11.33
- joint inflammation score (maximal score per day 12) (Lewis rats; day 2, vehicle 11.00): 11.15
- joint inflammation score (maximal score per day 12) (Lewis rats; day 3, vehicle 10.83): 11.33
- joint inflammation score (maximal score per day 12) (Lewis rats; day 4, vehicle 11.33): 9.83
- joint inflammation score (maximal score per day 12) (Lewis rats; day 5, vehicle 11.50): 8.83
- joint inflammation score (maximal score per day 12) (Lewis rats; day 6, vehicle 11.50): 7.83
- joint inflammation score (maximal score per day 12) (Lewis rats; day 7, vehicle 11.50): 6.16
- joint inflammation score (maximal score per day 12) (Lewis rats; day 8, vehicle 11.50): 5.00
- joint inflammation score (maximal score per day 12) (Lewis rats; day 9, vehicle 11.00): 4.33
- joint inflammation score (maximal score per day 12) (Lewis rats; day 10, vehicle 11.00): 2.66
- joint inflammation score (maximal score per day 12) (Lewis rats; day 11, vehicle 10.66): 1.83
- joint inflammation score (maximal score per day 12) (Lewis rats; day 12, vehicle 10.66): 1.83
- joint inflammation score (maximal score per day 12) (Lewis rats; day 13, vehicle 10.50): 2.66
- joint inflammation score (maximal score per day 12) (Lewis rats; day 14, vehicle 9.83): 2.66
- joint inflammation score (maximal score per day 12) (Lewis rats; day 15, vehicle 8.10): 2.00
- joint inflammation score (maximal score per day 12) (Lewis rats; day 16, vehicle 7.35): 2.00
- joint inflammation score (maximal score per day 12) (Lewis rats; day 17, vehicle 6.50): 1.50
- Tidemark Integrity (0-1), Mankin score (Lewis rats; tarsal joints, 10 mg/kg, vehicle 0): 0
- Pannus (0-1), synovitis histological score, mean ± SD (Lewis rats; tarsal joints, 10 mg/kg, vehicle 1.00 ± 0.89): 0.08 ± 0.20
- Fibroplasia (0-3), synovitis histological score, mean ± SD (Lewis rats; tarsal joints, 10 mg/kg, vehicle 1.75 ± 0.42): 0.75 ± 0.42
- Saffranin-O/Fast Green Staining (0-4), Mankin score, mean ± SD (Lewis rats; tarsal joints, 10 mg/kg, vehicle 2.50 ± 0.32): 1.25 ± 0.61
- Cartilage Cells (0-3), Mankin score, mean ± SD (Lewis rats; [2]): 0.58 ± 0.38
- Synovial Structure (0-3), synovitis histological score, mean ± SD (Lewis rats; [2]): 1.75 ± 0.52
- Cartilage Structure (0-6), Mankin score, mean ± SD (Lewis rats; tarsal joints, 10 mg/kg, vehicle 2.83 ± 0.26): 1.67 ± 0.41
- Inflammatory Cells (0-3), synovitis histological score, mean ± SD (Lewis rats; tarsal joints, 10 mg/kg, vehicle 2.92 ± 0.20): 1.33 ± 0.41
- Total Mankin Score (0-14), mean ± SD (Lewis rats; tarsal joints, 10 mg/kg, vehicle 7.92 ± 0.74): 3.50 ± 1.27
- Total Synovitis Score (0-10), mean ± SD (Lewis rats; tarsal joints, 10 mg/kg, vehicle 8.25 ± 1.57): 3.92 ± 1.36
- mean uterine weight ± SEM (129 SvE mice): 9.8 ± 0.5 mg
- Progesterone receptor mRNA (mean ± stdev) [1]: 403.9 ± 19.1 arbitrary units
- Casein kinase II mRNA/18S rRNA (mean ± SEM) (casein kinase II mRNA): 1.4 ± 0.7
- joint inflammation score (HLA-B27 rats; day 1, vehicle 0): 0
- joint inflammation score (HLA-B27 rats; day 2, vehicle 0): 0
- joint inflammation score (HLA-B27 rats; day 3, vehicle 0): 0
- joint inflammation score (HLA-B27 rats; day 4, vehicle 0): 0
- joint inflammation score (HLA-B27 rats; day 5, vehicle 0): 0
- joint inflammation score (HLA-B27 rats; day 6, vehicle 0): 0
- joint inflammation score (HLA-B27 rats; day 7, vehicle 0): 0
- joint inflammation score (HLA-B27 rats; day 8, vehicle 2.5): 2
- joint inflammation score (HLA-B27 rats; day 9, vehicle 3.75): 1.25
- joint inflammation score (HLA-B27 rats; day 10, vehicle 2.75): 1
- joint inflammation score (HLA-B27 rats; day 11, vehicle 3.5): 0
- joint inflammation score (HLA-B27 rats; day 12, vehicle 1.25): 0.5
- joint inflammation score (HLA-B27 rats; day 13, vehicle 1.25): 0.25
- joint inflammation score (HLA-B27 rats; day 14, vehicle 1.25): 0
- joint inflammation score (HLA-B27 rats; day 15, vehicle 5.25): 0.25
- joint inflammation score (HLA-B27 rats; day 16, vehicle 4.5): 1
- joint inflammation score (HLA-B27 rats; day 17, vehicle 3.5): 1
- joint inflammation score (HLA-B27 rats; day 18, vehicle 3.75): 0.5
- joint inflammation score (HLA-B27 rats; day 19, vehicle 5.5): 0.75
- joint inflammation score (HLA-B27 rats; day 22, vehicle 3.25): 0.25
- joint inflammation score (HLA-B27 rats; day 23, vehicle 6.5): 2
- joint inflammation score (HLA-B27 rats; day 24, vehicle 6.5): 2
- joint inflammation score (HLA-B27 rats; day 25, vehicle 6.25): 2
- joint inflammation score (HLA-B27 rats; day 26, vehicle 7): 1.75
- IC50 (human ERα): 107 nM

Source: patent publication US6723747B2, “Substituted 6H-DiBenzo[c,h]chromenes as estrogenic agents” (Wyeth, priority 2001, dated 2004)
